ChEMBL document CHEMBL1201862, “PubChem BioAssay data set” (2004)
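Interpolation was linear, between the two tested concentrations surrounding the appropriate level; five concentrations were tested over 48 hours in 96-well plates. At the GI50, growth is halved.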 Calls of active or inactive are those of the source. Rule as the data show it: active = GI50 up to about 1.1 µM and inactive = higher.

Experiments:
Assay in all cases: NCI anticancer screen, dose series, 48 h
786-0 = system: 786-0
A498 = system: A498
A549 = system: A549
ACHN = system: ACHN
CAKI-1 = system: CAKI-1
CCRF-CEM = system: CCRF-CEM
COLO 205 = system: COLO 205
DLD-1 = system: DLD-1
EKVX = system: EKVX
HCC 2998 = system: HCC 2998
HL-60 = system: HL-60
HOP-62 = system: HOP-62
HOP-92 = system: HOP-92
HT-29 = system: HT-29
IGROV-1 = system: IGROV-1
K562 = system: K562
KM-20L2 = system: KM-20L2
KM12 = system: KM12
LOX IMVI = system: LOX IMVI
LXFL 529 = system: LXFL 529
M14 = system: M14
M19-MEL = system: M19-MEL
MOLT-4 = system: MOLT-4
Malme-3M = system: Malme-3M
NCI-H226 = system: NCI-H226
NCI-H23 = system: NCI-H23
NCI-H460 = system: NCI-H460
NCI-H522 = system: NCI-H522
OVCAR-3 = system: OVCAR-3
OVCAR-4 = system: OVCAR-4
OVCAR-5 = system: OVCAR-5
OVCAR-8 = system: OVCAR-8
RPMI-8226 = system: RPMI-8226
RXF 393 = system: RXF 393
SF-268 = system: SF-268
SF-295 = system: SF-295
SF-539 = system: SF-539
SK-MEL-28 = system: SK-MEL-28
SK-MEL-2 = system: SK-MEL-2
SK-MEL-5 = system: SK-MEL-5
SK-OV-3 = system: SK-OV-3
SN12C = system: SN12C
SNB-19 = system: SNB-19
SNB-75 = system: SNB-75
SNB-78 = system: SNB-78
SW-620 = system: SW-620
TK-10 = system: TK-10
U-251 = system: U-251
UACC-257 = system: UACC-257
UO-31 = system: UO-31
DMS-114 = system: DMS-114
DMS-273 = system: DMS-273
HCT-116 = system: HCT-116
HCT-15 = system: HCT-15
UACC-62 = system: UACC-62
XF498 = system: XF498
BT-549 = system: BT-549
DU-145 = system: DU-145
Hs-578T = system: Hs-578T
MCF7 = system: MCF7
MDA-MB-231 = system: MDA-MB-231
MDA-MB-435 = system: MDA-MB-435
MDA-N = system: MDA-N
NCI/ADR-RES = system: NCI/ADR-RES
PC-3 = system: PC-3
SR = system: SR
T47D = system: T47D

For `CC1=C(C(=O)Nc2ccc([N+](=O)[O-])cc2)C(c2ccc(N(C)C)cc2)C(C(=O)Nc2ccc([N+](=O)[O-])cc2)=C(C)N1`, the GI50 (786-0) was 23.3 µM (inactive), the GI50 (A498) was 20.7 µM (inactive) and the GI50 (A549) was 21.2 µM (inactive). For the same compound, the GI50 (ACHN) was 0.0475 µM (active), the GI50 (CAKI-1) was 31.8 µM (inactive) and the GI50 (CCRF-CEM) was 17.8 µM (inactive). For the same compound, the GI50 (COLO 205) was 15.4 µM (inactive), the GI50 (DLD-1) was 11.9 µM (inactive) and the GI50 (EKVX) was 25.4 µM (inactive). The GI50 (HCC 2998) was 12 µM (inactive), the GI50 (HL-60) was 13.1 µM (inactive) and the GI50 (HOP-62) was 12.6 µM (inactive). For the same compound, the GI50 (HOP-92) was 12.1 µM (inactive), the GI50 (HT-29) was 23.4 µM (inactive) and the GI50 (IGROV-1) was 19.1 µM (inactive). The GI50 (K562) was 6.68 µM (inactive), the GI50 (KM-20L2) was 11.4 µM (inactive) and the GI50 (KM12) was 11.6 µM (inactive). The GI50 (LOX IMVI) was 9.04 µM (inactive), the GI50 (LXFL 529) was 16.8 µM (inactive) and the GI50 (M14) was 16.9 µM (inactive). For the same compound, the GI50 (M19-MEL) was 15.6 µM (inactive), the GI50 (MOLT-4) was 9.14 µM (inactive) and the GI50 (Malme-3M) was 23.3 µM (inactive). For the same compound, the GI50 (NCI-H226) was 17.6 µM (inactive), the GI50 (NCI-H23) was 18 µM (inactive) and the GI50 (NCI-H460) was 17.4 µM (inactive). The GI50 (NCI-H522) was 11 µM (inactive), the GI50 (OVCAR-3) was 16 µM (inactive) and the GI50 (OVCAR-4) was 21.1 µM (inactive). The GI50 (OVCAR-5) was 23.2 µM (inactive), the GI50 (OVCAR-8) was 26.6 µM (inactive) and the GI50 (RPMI-8226) was 12.2 µM (inactive). The GI50 (RXF 393) was 12.1 µM (inactive), the GI50 (SF-268) was 23.8 µM (inactive) and the GI50 (SF-295) was 27.5 µM (inactive). For the same compound, the GI50 (SF-539) was 23 µM (inactive), the GI50 (SK-MEL-28) was 13.5 µM (inactive) and the GI50 (SK-MEL-2) was 13.7 µM (inactive). For the same compound, the GI50 (SK-MEL-5) was 15 µM (inactive), the GI50 (SK-OV-3) was 23.4 µM (inactive) and the GI50 (SN12C) was > 10 µM (inactive). The GI50 (SNB-19) was 36.4 µM (inactive), the GI50 (SNB-75) was 13.7 µM (inactive) and the GI50 (SNB-78) was 29.2 µM (inactive). For the same compound, the GI50 (SW-620) was 23.9 µM (inactive), the GI50 (TK-10) was 32 µM (inactive) and the GI50 (U-251) was 21.9 µM (inactive). The GI50 (UACC-257) was 16.4 µM (inactive) and the GI50 (UO-31) was 21.5 µM (inactive).
With `COc1cc(C2C(Cl)C(=O)N2NC(=O)c2ccc(NC(C)=O)cc2)ccc1O` (configuration not stated) the GI50 (786-0) was > 100 µM (inactive), the GI50 (A498) was > 100 µM (inactive) and the GI50 (A549) was > 100 µM (inactive). For the same compound, the GI50 (ACHN) was > 100 µM (inactive), the GI50 (CAKI-1) was > 100 µM (inactive) and the GI50 (CCRF-CEM) was > 100 µM (inactive). The GI50 (COLO 205) was > 100 µM (inactive), the GI50 (DLD-1) was > 100 µM (inactive) and the GI50 (DMS-114) was > 100 µM (inactive). For the same compound, the GI50 (DMS-273) was > 100 µM (inactive), the GI50 (EKVX) was > 100 µM (inactive) and the GI50 (HCT-116) was > 100 µM (inactive). The GI50 (HCT-15) was greater than 100 µM, the GI50 (HL-60) was > 100 µM (inactive) and the GI50 (HOP-62) was > 100 µM (inactive). For the same compound, the GI50 (HOP-92) was > 100 µM (inactive), the GI50 (HT-29) was > 100 µM (inactive) and the GI50 (IGROV-1) was > 100 µM (inactive). For the same compound, the GI50 (K562) was > 100 µM (inactive), the GI50 (KM-20L2) was > 100 µM (inactive) and the GI50 (LOX IMVI) was > 100 µM (inactive). The GI50 (LXFL 529) was > 100 µM (inactive), the GI50 (M14) was > 100 µM (inactive) and the GI50 (M19-MEL) was > 100 µM (inactive). The GI50 (MOLT-4) was > 100 µM (inactive), the GI50 (Malme-3M) was > 100 µM (inactive) and the GI50 (NCI-H226) was > 100 µM (inactive). For the same compound, the GI50 (NCI-H23) was > 100 µM (inactive), the GI50 (NCI-H460) was > 100 µM (inactive) and the GI50 (NCI-H522) was > 100 µM (inactive). For the same compound, the GI50 (OVCAR-3) was > 100 µM (inactive), the GI50 (OVCAR-4) was > 100 µM (inactive) and the GI50 (OVCAR-5) was > 100 µM (inactive). For the same compound, the GI50 (OVCAR-8) was > 100 µM (inactive), the GI50 (RPMI-8226) was > 100 µM (inactive) and the GI50 (RXF 393) was > 100 µM (inactive). For the same compound, the GI50 (SF-268) was > 100 µM (inactive), the GI50 (SF-295) was > 100 µM (inactive) and the GI50 (SF-539) was > 100 µM (inactive). The GI50 (SK-MEL-28) was > 100 µM (inactive), the GI50 (SK-MEL-2) was > 100 µM (inactive) and the GI50 (SK-MEL-5) was > 100 µM (inactive). The GI50 (SK-OV-3) was > 100 µM (inactive), the GI50 (SN12C) was > 100 µM (inactive) and the GI50 (SNB-19) was > 100 µM (inactive). For the same compound, the GI50 (SNB-78) was > 100 µM (inactive), the GI50 (SW-620) was > 100 µM (inactive) and the GI50 (TK-10) was > 100 µM (inactive). For the same compound, the GI50 (U-251) was > 100 µM (inactive), the GI50 (UACC-257) was > 100 µM (inactive) and the GI50 (UACC-62) was > 100 µM (inactive). The GI50 (UO-31) was > 100 µM (inactive) and the GI50 (XF498) was > 100 µM (inactive).
With `O=C(O)CCSC(=S)Nc1ccc([N+](=O)[O-])cc1` the GI50 (786-0) was > 100 µM (inactive), the GI50 (A498) was > 70.3 µM (inactive) and the GI50 (A549) was > 83.2 µM (inactive). For the same compound, the GI50 (ACHN) was 33.8 µM (inactive), the GI50 (BT-549) was 36.2 µM (inactive) and the GI50 (CAKI-1) was > 100 µM (inactive). For the same compound, the GI50 (CCRF-CEM) was 23.7 µM (inactive), the GI50 (COLO 205) was 97.9 µM (inactive) and the GI50 (DMS-114) was 37.7 µM (inactive). The GI50 (DMS-273) was 75.9 µM (inactive), the GI50 (DU-145) was 43.6 µM (inactive) and the GI50 (EKVX) was > 51.4 µM (inactive). For the same compound, the GI50 (HCC 2998) was > 89.9 µM (inactive), the GI50 (HCT-116) was 60.7 µM (inactive) and the GI50 (HCT-15) was greater than 56.6 µM. The GI50 (HL-60) was 20.8 µM (inactive), the GI50 (HOP-62) was > 94.2 µM (inactive) and the GI50 (HOP-92) was 29.9 µM (inactive). The GI50 (HT-29) was > 94 µM (inactive), the GI50 (Hs-578T) was > 100 µM (inactive) and the GI50 (IGROV-1) was 42.9 µM (inactive). For the same compound, the GI50 (K562) was 27.2 µM (inactive), the GI50 (KM-20L2) was > 100 µM (inactive) and the GI50 (KM12) was > 80.2 µM (inactive). For the same compound, the GI50 (LOX IMVI) was 31.9 µM (inactive), the GI50 (LXFL 529) was 46.6 µM (inactive) and the GI50 (M14) was > 85.9 µM (inactive). The GI50 (MCF7) was 40.1 µM (inactive), the GI50 (MDA-MB-231) was > 100 µM (inactive) and the GI50 (MDA-MB-435) was 24.4 µM (inactive). The GI50 (MDA-N) was 23.1 µM (inactive), the GI50 (MOLT-4) was 8.38 µM (inactive) and the GI50 (Malme-3M) was 38.2 µM (inactive). The GI50 (NCI-H226) was > 75.2 µM (inactive), the GI50 (NCI-H23) was > 66.7 µM (inactive) and the GI50 (NCI-H460) was > 82.6 µM (inactive). For the same compound, the GI50 (NCI-H522) was > 46.5 µM (inactive), the GI50 (NCI/ADR-RES) was 40.8 µM (inactive) and the GI50 (OVCAR-3) was 45 µM (inactive). For the same compound, the GI50 (OVCAR-4) was > 56.5 µM (inactive), the GI50 (OVCAR-5) was > 100 µM (inactive) and the GI50 (OVCAR-8) was 36.6 µM (inactive). The GI50 (PC-3) was 48.2 µM (inactive), the GI50 (RPMI-8226) was 27.3 µM (inactive) and the GI50 (RXF 393) was > 60.8 µM (inactive). The GI50 (SF-268) was 34.5 µM (inactive), the GI50 (SF-295) was 40.5 µM (inactive) and the GI50 (SF-539) was 39.5 µM (inactive). The GI50 (SK-MEL-28) was 41.3 µM (inactive), the GI50 (SK-MEL-2) was > 61.4 µM (inactive) and the GI50 (SK-MEL-5) was 20.3 µM (inactive). The GI50 (SK-OV-3) was > 100 µM (inactive), the GI50 (SN12C) was > 74 µM (inactive) and the GI50 (SNB-19) was > 81.8 µM (inactive). For the same compound, the GI50 (SNB-75) was 33.4 µM (inactive), the GI50 (SNB-78) was > 100 µM (inactive) and the GI50 (SR) was 11.7 µM (inactive). For the same compound, the GI50 (SW-620) was > 70.1 µM (inactive), the GI50 (T47D) was 31.3 µM (inactive) and the GI50 (TK-10) was 51.8 µM (inactive). For the same compound, the GI50 (U-251) was > 56.2 µM (inactive), the GI50 (UACC-257) was 22.3 µM (inactive) and the GI50 (UACC-62) was 21.6 µM (inactive). For the same compound, the GI50 (UO-31) was > 63.1 µM (inactive).
